One assay has as its system avena fatua (AVEFA). Nature of the assay: Adjuvant with herbicide pinoxaden on AVEFA. Format: in vivo. Particulars: 14 and 21 days. The procedure:
In this example Sample 13 from Table 1 was compared to the oil adjuvant blend Turbocharge™. The herbicide fomesafen was applied to the weed species xanthium strumarium (XANST), setaria viridis (SETVI), abutilon theophrasti (ABUTH), and chenopodium album (CHEAL) at rates of 60 or 120 grams per hectare, using a laboratory track sprayer. Each experiment was replicated four times and the percentage damage to the weeds was assessed visually at time periods of 7, 14 and 21 days after application. Each adjuvant was applied at a rate of 0.5% of the volume of the spray water. Four effects were evaluated: pesticide rate (2 levels), adjuvant type (two levels), weed species (four levels) and days after application (three levels). […] The effect of each adjuvant was pulled out from the model and the least significant differences evaluated using a Student's t method. […]
In this example the responses of the adjuvants 13, 17, 19, 21, 22 and 23 were measured at an application rate of 0.2% of the volume of the spray solution used. […] In each case the experiments were replicated four times and the percentage damage to the weeds was assessed visually at time periods of 14 and 21 days after application.
In this example the response of butylene oxide sample 27 of Table 1 was measured at an application rate of 0.2% of the volume of the spray solution used. […]

Assay [1] deals with xanthium strumarium (XANST), setaria viridis (SETVI), abutilon theophrasti (ABUTH), chenopodium album (CHEAL). The assay can be described thus: Adjuvant with herbicide fomesafen, track sprayer, mean across four weed species. In kind it is in vivo. The note with it: fomesafen 60 or 120 g/ha; butylene oxide adjuvants 0.2%, TEHP and Turbocharge 0.5%; 7 and 13 days. The procedure: In this example Sample 13 from Table 1 was compared to the oil adjuvant blend Turbocharge™. The herbicide fomesafen was applied to the weed species xanthium strumarium (XANST), setaria viridis (SETVI), abutilon theophrasti (ABUTH), and chenopodium album (CHEAL) at rates of 60 or 120 grams per hectare, using a laboratory track sprayer. […] Four effects were evaluated: pesticide rate (2 levels), adjuvant type (two levels), weed species (four levels) and days after application (three levels). A standard simple linear model was constructed to judge the significance of these effects. […] A model was fitted using multiple linear regression using the statistics package JMP (SAS group). The effect of each adjuvant was pulled out from the model and the least significant differences evaluated using a Student's t method. In further examples, where a greater number than two adjuvants were compared, Tukey's HSD method was used. […]
In this example the rate response of the butylene oxide adjuvant number 13 of Table 1 was measured to display the excellent performance of this adjuvant at very low rates. compared to the adjuvant Brij™96V. […]
In this example the rate response of the butylene oxide sample 27 of Table 1 was measured, displaying the excellent performance of this adjuvant compared to the commercial adjuvant Turbocharge™, used at a rate of 0.5% by volume. […]

Turning to `CCCCC(CC)COP(=O)(OCC(CC)CCCC)OCC(CC)CCCC` (stereo not drawn) [TEHP, tris 2-ethylhexyl phosphate], the “mean efficacy (percentage damage to the weeds), AVEFA” value with avena fatua (AVEFA) (pinoxaden 7.5, 11.25 or 15 g/ha, Sample 13 0.2%, TEHP 0.5%) is recorded as 78.33; A %; in the assay on avena fatua (AVEFA) (pinoxaden 7.5 or 15 g/ha, butylene oxide adjuvants 0.2%, TEHP 0.5% v/v), 73.75; AB %. Besides, the “Mean kill across weeds (%)” value in assay [1] is recorded as 72.7%.

These data come from patent US20120172228A1, “ALCOHOL ALKOXYLATES AS ADJUVANTS FOR AGROCHEMICAL FORMULATIONS” (SYNGENTA CROP PROTECTION, LLC, priority 2009, published 2012).
